The text below walks through data of article PMC8330636, “Design and enantioselective synthesis of 3-(α-acrylic acid) benzoxaboroles to combat carbapenemase resistance” (Chemical Communications (Cambridge, England), 2021).

Like-named read-outs stand apart in the source and are kept apart here.

Assay [1] concerns the target T1, OXA-48 (Klebsiella pneumoniae, UniProt Q6XEC0).
T1 construct: purified recombinant; class D serine beta-lactamase; construct details only in ESI
Put plainly: inhibition of purified recombinant enzyme. In kind it is biochemical. To be noted: read-out: Class D OXA-48.

Assay [2] deals with T2, KPC-2 (Klebsiella pneumoniae, UniProt Q9F663).
T2 construct: purified recombinant; class A serine beta-lactamase; construct details only in ESI
Put plainly: inhibition of purified recombinant enzyme. In kind it is biochemical. As to conditions: read-out: Class A KPC-2.

Assay [3] addresses T2, KPC-2. Briefly: biochemical. Details: inhibition of purified recombinant beta-lactamases, IC50. To be noted: read-out: Class A KPC-2.
Assay [4] deals with T1, OXA-48. Briefly: biochemical. Details: inhibition of purified recombinant beta-lactamases, IC50. As to conditions: read-out: Class D OXA-48.
Assay [5] has as its target T3, Class B1 NDM-1 (Klebsiella pneumoniae, UniProt C7C422).
T3 construct: gene blaNDM-1
Put plainly: biochemical. Details: inhibition of purified recombinant beta-lactamases, IC50.

Assay [6] has as its target T3, Class B1 NDM-1. Put plainly: biochemical. Details: inhibition of purified recombinant beta-lactamases, IC50 from dose-response curves; read-out not stated in excerpts. From the text:
This selectivity was mostly, but not exclusively observed for the other β-lactamases, substantial inhibition of which was more sporadic than for KPC-2 (Table 2). The KPC-2 stereoselectivity for the benzoxaborole derivatives is interesting since the penicillin substrates of some of the β-lactamases have a (2S) C-3 carbon adjacent to their C-2 carboxylate. The difference in results for the (R)- and (S)-benzoxaboroles may reflect different distances between their carboxylate and electrophilic boron; the analogous carboxylate to β-lactam distance is proposed to be important with respect to antibacterial activity.[11]

T2 sequence (Q9F663 25-293 limits assumed): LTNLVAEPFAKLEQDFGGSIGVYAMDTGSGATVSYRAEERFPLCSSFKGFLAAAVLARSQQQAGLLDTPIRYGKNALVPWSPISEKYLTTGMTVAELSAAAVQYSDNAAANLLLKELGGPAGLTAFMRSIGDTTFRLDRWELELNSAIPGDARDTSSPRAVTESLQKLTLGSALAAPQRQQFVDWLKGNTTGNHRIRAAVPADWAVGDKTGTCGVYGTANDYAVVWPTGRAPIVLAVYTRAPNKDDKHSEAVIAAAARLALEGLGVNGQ
T1 sequence (Q6XEC0 23-265 limits assumed): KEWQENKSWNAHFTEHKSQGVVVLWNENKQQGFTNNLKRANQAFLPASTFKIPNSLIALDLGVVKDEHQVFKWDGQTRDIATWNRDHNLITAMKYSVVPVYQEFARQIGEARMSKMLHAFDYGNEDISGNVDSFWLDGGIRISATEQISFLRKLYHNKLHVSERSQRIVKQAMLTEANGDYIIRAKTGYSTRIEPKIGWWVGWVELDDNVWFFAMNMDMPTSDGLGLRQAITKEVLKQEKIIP
T3 sequence (C7C422 whole entry, looked up): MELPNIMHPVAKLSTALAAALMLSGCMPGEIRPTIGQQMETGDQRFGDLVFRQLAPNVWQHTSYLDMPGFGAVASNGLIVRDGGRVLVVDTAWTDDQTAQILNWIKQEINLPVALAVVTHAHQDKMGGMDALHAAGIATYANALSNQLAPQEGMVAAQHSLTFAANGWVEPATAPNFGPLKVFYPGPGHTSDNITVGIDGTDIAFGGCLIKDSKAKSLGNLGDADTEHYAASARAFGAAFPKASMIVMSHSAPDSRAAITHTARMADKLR

Consider `C=C(C(=O)O)[C@@H]1OB(O)c2ccccc21` [(R)-4a], for which the IC50 on OXA-48 [1] stood at 15.8 µM; at KPC-2 [2], 3.08 µM.
Consider `C=C(C(=O)O)[C@@H]1OB(O)c2ccc(OC)cc21` [(R)-4c], for which the IC50 was found to be 42.5 µM on OXA-48 [1] and 7.62 µM on KPC-2 [2].
For `C=C(C(=O)O)[C@@H]1OB(O)c2ccc(F)cc21` [(R)-4f], the IC50 on OXA-48 [1] stood at 10.1 µM; on KPC-2 [2], 3.87 µM.
For the compound `C=C(C(=O)O)[C@@H]1OB(O)c2cc(F)ccc21` [(R)-4j], the IC50 came out at 5.97 µM at OXA-48 [1] and 0.97 µM on KPC-2 [2].
Consider `C=C(C(=O)O)[C@@H]1OB(O)c2ccc(Oc3ccc(C)cc3)cc21` [(R)-4m], for which the IC50 is 3.58 µM at KPC-2 [3], 6.24 µM at OXA-48 [4] and 352 µM on Class B1 NDM-1 [5].
As to `C=C(C(=O)O)[C@@H]1OB(O)c2ccc(Oc3cccc(C)c3)cc21` [(R)-4n], the IC50 at KPC-2 [3] was 2.11 µM; on OXA-48 [4], 4.1 µM; at Class B1 NDM-1 [5] it was 110 µM.
For `C=C(C(=O)O)[C@@H]1OB(O)c2ccc(Oc3ccc(C(F)(F)F)cc3)cc21` [(R)-4o] the same measures were 3.76 µM, 7.73 µM and above 600 µM.
Regarding `C=C(C(=O)O)[C@@H]1OB(O)c2ccc(OCc3ccccc3)cc21` [(R)-4p], the values for the IC50 on KPC-2 [3], on OXA-48 [4] and at Class B1 NDM-1 [5] were 1.17 µM, 7.55 µM and above 300 µM, respectively.
For `C=C(C(=O)O)[C@@H]1OB(O)c2cc(Oc3ccc(OC)cc3)ccc21` [(R)-4q], the IC50 worked out at 0.43 µM at OXA-48 [1] and 0.07 µM at KPC-2 [2].
For the compound `C=C(C(=O)O)[C@@H]1OB(O)c2cc(Oc3ccc([N+](=O)[O-])cc3)ccc21` [(R)-4r], the IC50 on KPC-2 [3] stood at 0.12 µM; on OXA-48 [4], 2.64 µM; at Class B1 NDM-1 [5], 308 µM.
For `C=C(C(=O)O)[C@@H]1OB(O)c2cc(Oc3ccc(Cl)cc3)ccc21` [(R)-4s] the same measures were 0.27 µM, 0.85 µM and 146 µM.
For `C=C(C(=O)O)[C@@H]1OB(O)c2cc(OCc3ccccc3)ccc21` [(R)-4t] the same measures were 0.55 µM, 1.33 µM and 382 µM.
Regarding `C=C(C(=O)O)[C@H]1OB(O)c2ccccc21` [(S)-4a], the results for the IC50 on OXA-48 [1], on KPC-2 [2] and at Class B1 NDM-1 [6] were 14.1 µM, 0.48 µM and above 600 µM, respectively.
As to `C=C(C(=O)O)[C@H]1OB(O)c2ccc(OC)cc21` [(S)-4c], the IC50 at OXA-48 [1] amounted to 34.1 µM; at KPC-2 [2], 0.54 µM.
Consider `C=C(C(=O)O)[C@H]1OB(O)c2ccc(F)cc21` [(S)-4f], for which the IC50 at OXA-48 [1] came out at 14.7 µM; at KPC-2 [2], 0.34 µM.
On to `C=C(C(=O)O)[C@H]1OB(O)c2cc(F)ccc21` [(S)-4j], for which the figures for the IC50 at OXA-48 [1] and at KPC-2 [2] were 12 µM and 0.49 µM, respectively.
With `C=C(C(=O)O)[C@H]1OB(O)c2cc(Oc3ccc(OC)cc3)ccc21` [(S)-4q], the values for the IC50 at OXA-48 [1] and at KPC-2 [2] were 0.74 µM and 0.01 µM, respectively.
Consider `NC(=O)[C@@H]1CC[C@@H]2CN1C(=O)N2OS(=O)(=O)O` [Avibactam], for which the IC50 on Class B1 NDM-1 [6] is above 600 µM.
